The record followed here is patent US20140161767A1, “FOLLICLE-STIMULATING HORMONE (FSH)/LYTIC DOMAIN FUSION CONSTRUCTS AND METHODS OF MAKING AND USING SAME” (BOARD OF SUPERVISORS OF LOUISIANA STATE UNIVERSITY AND …, priority 2012, published 2014).

For test [1], the system named is MDA-MB-435S.luc xenograft. In words: Mouse xenograft model of breast cancer, βCG fusion constructs. To be noted: weekly bolus injections, days 13, 19, 25. The test is classed as in vivo, mice. The protocol:
This example describes in vivo studies in a mouse xenograft model of breast cancer with various types and doses of βCG- and LHRH-fusion constructs.
Female Nu/Nu mice were injected subcutaneously with a MDA-MB-435S.luc/Matrigel HC suspension (1×10^6 cells). In brief, treatment started on day 13 after tumor cell injection and continued on day 19 and 25. […] The doses for weekly injections were 5, 1 and 0.01 mg/kg body weight, given as a bolus single injection.
The effect of cytolytic peptide injections on the primary tumors is illustrated in FIG. 8. In brief, the FIGS. 8A-8C show tumor volume during the course of the study for each individual peptide. FIGS. 8D-8G show tumor characteristics at necropsy: tumor volume (D), tumor weight (E), live tumor cells (F), tumor conditions (G).
Treatment efficacy was calculated as difference between measurements at the beginning of treatment compared to the measurement at the end of study (FIG. 8H-8I). […] Viability of cells in the tumors was determined at the end of the study when tumors were measured for luciferase activity.

The subject of another test is SKOV-3. In words: Cell viability after 4 hours (Cell Titer Glo), SKOV-3. The test is classed as cell-based, human. To be noted: 4 h incubation; read-out: Activities [μM] SKOV-3 (p35). The protocol:
Human ovarian cancer cell lines OVCAR-3 (p 41), SKOV-3 (p 35) and the human uterine sarcoma cell line MES-SA-Dx5 (p 61) (multi-drug resistant clone), the human pancreatic cancer cell line Panc-1 (passage number 18), and human triple negative breast cancer cell line MDA-MB-231 (passage number 47) were grown in ATCC recommended medium, 10% fetal bovine serum, 100 IU/ml penicillin, 100 microg/ml streptomycin. Cells were typically seeded (2,000 cells per well) into 96 well plates and media was replaced after 48 hours of incubation. […] Each Phor-18-hFSH-β81-89 conjugate provided in lyophilized form was dissolved in saline and added to cells. The duration of incubation was 4 hours at 37° C. Cell viability was assessed after 4 hours using a luminometric assays (Promega, Cell Titer Glo, G755B, lot #00000031421). Controls contained saline or 0.1% triton as reference for 0 and 100% cell death, respectively.
Data were processed and analyzed using GraphPad Prism version 5.00 for Windows, GraphPad Software, San Diego Calif. USA, www.graphpad.com”. Statistical analysis for significance was determined by a two-tailed Student's T-test. Each study was conducted to achieve an N of at least 6.
In vitro activities were expressed as IC50 values for each cell line, time point and compound tested that were calculated using the Hill equation (Graph Pad Prizm software).

In the next test the test system is OVCAR-3. The test can be described thus: IC50 in human cancer cell lines compared to cisplatinum: OVCAR-3. The test is classed as cell-based. Particulars: ovarian cancer cell line. As for the experimental part: MDA-MB-435S.luc cells were grown in Leibovitz's L 15 medium, 10% fetal bovine serum, 0.01 mg/ml bovine insulin, 100 IU/ml penicillin, 100 microg/ml streptomycin. The cells were cultured in tight closed flasks. The incubations were conducted using 96 well plates at 10,000 cells per well. Cells were typically seeded into 96 well plates and media was replaced after 48 hours of incubation. Each assay was conducted at increasing concentrations of 0, 0.001, 0.01, 0.05, 0.1, 0.5, 1, 2, 5, 10 and 100 micromolar doses of lytic peptide-binding domain conjugate. Each lytic peptide-binding domain conjugate provided in lyophilized form and was freshly dissolved in saline and added to cells. The duration of incubation was typically 24 h, and cell viability assays were conducted using formazan conversion assays (MTT assay). Controls contained saline or 0.1% triton as reference for 0 and 100% cell death, respectively.
To ascertain the IC50 of various fusion constructs on different human cancer cell lines compared to cisplatinum, IC50 of fusion constructs were evaluated as in Table 3.

A further test relates to SKOV-3 cells. The test is classed as cell-based, human. Particulars: SKOV-3, 24 hours incubation; read-out: IC50 (maximal efficacy). The source says: (§1) Membranes of non-cancerous cell lines are neutral and are resistant to cytolytic peptides, in contrast to cancer cell lines, which have a high phosphatidic acid content in their outer membrane.
(§2) The breast cancer cell lines studied were MDA-MB-4355 (estrogen receptor alpha negative), MCF-7 and T47D (estrogen receptor alpha positive), ovarian cancer cell lines (OVCAR-3 and SKOV-3), prostate cancer (LNCaP), the non-malignant breast epithelial cell line MCF-10A and the mouse fibroblast cell line NIH:3T3.
(§3) Cells were seeded into 96 well plates at a densitiy of 10,000 cells/well. […] Controls contained USP saline or 0.1% TritonX-100™ as reference for 0 and 100% cell death, respectively. […] Cell viability was assessed through formazan conversion assay (MTT assay, (CellTiter 96 Aqueous One, Promega # G3582). Formazan conversion was determined using a BioRad Benchmark Plus microplate spectrophotometer dual wavelengths at 490/630 nm at room temperature).
(§4) Data were calculated as fraction of absorption in TritonX-100™ containing wells representing 100% cell death versus 0% cell death in saline containing wells. Cytotoxicity was determined as IC50 using GraphPad Prism version 5.01 for Windows, GraphPad Software, San Diego Calif. […] 4 wells of each individual set of two 96 well plates were compared and analyzed. Statistical analysis for significance was determined by a two-tailed Student's T-test.

The test system of the next test is OVCAR-3 cells. The test is classed as cell-based, human. To be noted: OVCAR-3 (p47), values listed with increasing incubation time, times not stated.
Text: as §1, §2, §3, §4

For the next test, the system named is MDA-MB-435. In words: Fluorescence microscopy, mechanism of action in MDA-MB-435 cells. To be noted: 10 μM, 5 minutes exposure. The test is classed as cell-based, human. The protocol: In brief, human breast cancer cells (MDA-MB-435, passage #252) were seeded onto culture dishes. The following markers were introduced prior to adding EP100: DRAQ5™ (Alexis Corporation)—blue—was used for staining of the nucleus and MnoTracker® Red CMXRos (M7512) (Molecular Probes, Inc. OR) were applied for visualizing intact mitochondria. Cell membranes were stained with wheat germ alexa fluor green conjugates (Molecular Probes, Inc. OR).
Cells were loaded first with Mitotracker dye, according to the manufacturers recommendation. […] Culture dishes with saline only served as controls. The supernatant was removed and the remaining cells prepared for fluorescence microscopy imaging.

The next test deals with MCF-7 xenograft. The test can be described thus: MCF-7 breast cancer xenograft. To be noted: MCF-7, 2 × 3 wk, 19 d. The test is classed as in vivo, mice. As for the experimental part: In vivo efficacy studies were conducted as monotherapy, or a combination therapy with standard of care treatments in nude mice bearing human breast cancer xenografts: MDA-MB-435S.luc (s.c.), MCF-7 (estrogen receptor alpha positive), human ovarian cancer xenografts: OVCAR-3, (s.c.), human prostate cancer xenografts: PC-3 (androgen receptor negative).
Mice were sacrificed one week after the last injection and blood collected for chemistry panel, tumor weights and body weights were recorded. Part of the tumors were fixed in PBS buffered 10% formalin for histological evaluation.

Turning to KFAKFAK KFAKFAK KFAK [Phor18], the “Tumor volume compared to saline controls” value in test [1] is listed as “ineffective”. Moreover, the IC50 in the test on SKOV-3 amounted to 21.7 ± 3.6 µM.
In the case of “KFAKFAKKFAKFAKKFAKQHWSYGLRPG [Phor18-LHRH]”, the IC50 stood at 3 ± 0.5 µM in the test with OVCAR-3, 11.5 µM in the test with SKOV-3 cells and 0.5 µM with OVCAR-3 cells. Besides, in the test with MDA-MB-435, the “Plasma membrane (fluorescence microscopy)” value is given as “disintegration of the plasma membrane”. In addition, the “Median Tumor Weight vs Saline P < 0.05 (dose, growth delay)” value in the test on MCF-7 xenograft came out at 0.02 mg/kg growth.
